Results reported in patent US10973228B2, “Eco-friendly non-aqueous antimicrobial composition comprising hinokitiol with 1,3-propanediol and/or sorbitan caprylate” (ISP INVESTMENTS INC., priority 2012, dated 2021).

How the values were obtained:
Type in all cases: cell-based
[1] = test system: Escherichia coli (DSM 1576); assay: MIC study on agar, bacterial strain; conditions: for reduction of MIC level of hinokitiol: against Escherichia coli
Description: (§1) The individual concentrations of the test-product were weighed into sterile Erlenmeyer flasks and mixed with 100 ml of an appropriate growth media at a maximum temperature of about 40 to 50° C. Equal amounts of mixtures were poured into four Petri dishes. After cooling, the Petri dishes were inoculated with the respective standard strains. During the experiment, the Petri dishes were kept for 2 to 3 weeks at room temperature of about 20 to 25° C. in the dark. The following two different types of culture media were employed for the present studies: • i. Bacteria-Agar: merchantable Caso—Agar pH-Value: 7.3±0.2 • ii. Fungi/Yeast-Agar:merchantable Malt extract—Agar (3%) pH-Value: 5.6±0.2
(§2) After 2nd and 3rd weeks macroscopic evaluations were performed, the ratings are as follows:
(§3) The formulation under examination is considered to be efficient if the following conditions are duly fulfilled i.e. (i) after 2-3 weeks no growth of the tested culture is visible; (ii) with rising concentration of the tested formulation, the germ growth should macroscopically be reduced until it is not visible any more.

[2] = test system: Staphylococcus aureus (DSM 799); assay: MIC study on agar, bacterial strain
Description: as §1, §2, §3

[3] = test system: Burkholderia cepacia (DSM 7288); assay: MIC study on agar, bacterial strain; conditions: DSM7288, ppm of antimicrobial active (Hinokitiol), Caso-Agar pH 7.3, 2 to 3 weeks at 20 to 25° C.
Description: as §1, §2, §3

[4] = test system: Pseudomonas aeruginosa (DSM 1128); assay: MIC study on agar, bacterial strain; conditions: DSM1128, ppm of antimicrobial active (Hinokitiol), Caso-Agar pH 7.3, 2 to 3 weeks at 20 to 25° C.
Description: as §1, §2, §3

[5] = test system: Aspergillus brasiliensis (DSM 1988); assay: MIC study on agar, fungal strain; conditions: DSM1988, ppm of antimicrobial active (Hinokitiol), Malt extract-Agar (3%) pH 5.6, 2 to 3 weeks at 20 to 25° C.
Description: as §1, §2, §3

[6] = test system: Trichoderma viride (DSM 63064); assay: MIC study on agar, fungal strain; conditions: DSM63064, ppm of antimicrobial active (Hinokitiol), Malt extract-Agar (3%) pH 5.6, 2 to 3 weeks at 20 to 25° C.
Description: as §1, §2, §3

CC(C)c1cccc(O)c(=O)c1 [Hinokitiol, 2-Hydroxy-6-propan-2-ylcyclohepta-2,4,6-trien-1-one]
100 mg/L: MIC ([1]; DSM1576, Escherichia coli, ppm of antimicrobial active (Hinokitiol), Caso-Agar pH 7.3, 2 to 3 weeks at 20 to 25° C.) | MIC ([2]; DSM799, Staphylococcus aureus, ppm of antimicrobial active (Hinokitiol), Caso-Agar pH 7.3, 2 to 3 weeks at 20 to 25° C.) | MIC [5] | MIC [6]
50%: reduction of MIC level of hinokitiol ([1]; in presence of 1,3-propanediol (Zemea)) | reduction of MIC level of hinokitiol ([1]; in presence of sorbitan caprylate (Velsan SC)) | reduction of MIC level of hinokitiol ([2]; in presence of 1,3-propanediol (Zemea), against Staphylococcus aureus)
500 mg/L: MIC [3] | MIC [4]
